According to patent US10323036B2 (Nimbus Lakshmi, Inc., priority 2016, dated 2019):
Read-outs that look alike come from different tables or passages of the source.

Target: human TYK2 (JH2domain-pseudokinase) (Homo sapiens (Human), UniProt P29597)
Test: TYK2 JH2 Domain Binding Assay (KINOMEscan)
[1] = Table 4, JH2 binding assay, read-out: JH2 Kd
[2] = Table 5, Tyk2 JH2 Domain Binding Assay, read-out: JH2 Kd

human TYK2 (JH2domain-pseudokinase), sequence (P29597 556-888): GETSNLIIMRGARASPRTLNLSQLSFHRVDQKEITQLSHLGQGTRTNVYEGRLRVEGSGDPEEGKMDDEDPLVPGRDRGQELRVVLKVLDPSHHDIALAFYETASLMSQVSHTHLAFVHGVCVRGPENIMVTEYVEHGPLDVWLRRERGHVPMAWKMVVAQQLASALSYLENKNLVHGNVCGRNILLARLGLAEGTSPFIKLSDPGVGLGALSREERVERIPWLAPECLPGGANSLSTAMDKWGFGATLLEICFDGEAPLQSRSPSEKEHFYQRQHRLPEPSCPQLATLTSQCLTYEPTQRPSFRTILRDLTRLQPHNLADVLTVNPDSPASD

Kd [1] | Structure (SMILES) | other results
0.5 to 1 nM | Cn1ccc(Nc2cc(Nc3ccccc3S(C)(=O)=O)c3c(=O)n(C)[nH]c3n2)n1 [Compound I-137, 2-methyl-6-((1-methyl-1H-pyrazol-3-yl)amino)-4-((2-(methylsulfonyl)phenyl)amino)-1,2-dihydro-3H-pyrazolo[3,4-b]pyridin-3-one] | –
1 to 10 nM | COc1c(Cl)cccc1Nc1cc(Nc2ccc(N3CCOCC3)cn2)nc2[nH]n(C)c(=O)c12 [Compound I-115, 4-((3-chloro-2-methoxyphenyl)amino)-2-methyl-6-((5-morpholinopyridin-2-yl)amino)-1,2-dihydro-3H-pyrazolo[3,4-b]pyridin-3-one] | –
0.1 to 0.5 nM | Cc1ccc(Nc2cc(Nc3ccccc3S(C)(=O)=O)c3c(=O)n(C)[nH]c3n2)nc1 [Compound I-111, 2-methyl-6-((5-methylpyridin-2-yl)amino)-4-((2-(methylsulfonyl)phenyl)amino)-1,2-dihydro-3H-pyrazolo[3,4-b]pyridin-3-one] | –
1 to 10 nM | COc1cc(CO)ccc1Nc1cc(Nc2cccc(C(F)(F)F)n2)nc2[nH]n(C)c(=O)c12 [Compound I-72, 4-((4-(hydroxymethyl)-2-methoxyphenyl)amino)-2-methyl-6-((6-(trifluoromethyl)pyridin-2-yl)amino)-1,2-dihydro-3H-pyrazolo[3,4-b]pyridin-3-one] | –
> 10 nM | COc1c(C#N)cccc1Nc1cc(Nc2cc(C)nc(C)n2)nc2[nH]n(C)c(=O)c12 [Compound I-39] | –
0.1 to 0.5 nM | COc1c(Cl)cccc1Nc1cc(Nc2ccc(N3CC[C@H](OC)C3)c(C#N)n2)nc2[nH]n(C)c(=O)c12 [Compound I-145, (S)-6-((4-((3-chloro-2-methoxyphenyl)amino)-2-methyl-3-oxo-2,3-dihydro-1H-pyrazolo[3,4-b]pyridin-6-yl)amino)-3-(3-methoxypyrrolidin-1-yl)picolinonitrile] | –
> 10 nM | COc1c(Cl)cccc1Nc1cc(Nc2cncc(C#N)n2)nc2[nH]n(C)c(=O)c12 [Compound I-117, 6-((4-((3-chloro-2-methoxyphenyl)amino)-2-methyl-3-oxo-2,3-dihydro-1H-pyrazolo[3,4-b]pyridin-6-yl)amino)pyrazine-2-carbonitrile] | –
0.5 to 1 nM | COc1c(Nc2cc(Nc3cc(C)nc(C)n3)nc3[nH]n(C)c(=O)c23)cccc1-c1ncn(C)n1 [Compound I-22, 6-((2,6-dimethylpyrimidin-4-yl)amino)-4-((2-methoxy-3-(1-methyl-1H-1,2,4-triazol-3-yl)phenyl)amino)-2-methyl-1,2-dihydro-3H-pyrazolo[3,4-b]pyridin-3-one] | –
> 10 nM | COc1c(C#N)cccc1Nc1cc(Nc2ccc(N3CCCCC3)cn2)nc2[nH]n(C)c(=O)c12 [Compound I-40] | –
1 to 10 nM | COc1c(F)cccc1Nc1cc(Nc2cccc(C(F)(F)F)n2)nc2[nH]n(C)c(=O)c12 [Compound I-86, 4-((3-fluoro-2-methoxyphenyl)amino)-2-methyl-6-((6-(trifluoromethyl)pyridin-2-yl)amino)-1,2-dihydro-3H-pyrazolo[3,4-b]pyridin-3-one] | –
> 10 nM | COc1c(F)cccc1Nc1cc(Nc2ccc(N3CCCC3)cn2)nc2[nH]n(C)c(=O)c12 [Compound I-90, 4-((3-fluoro-2-methoxyphenyl)amino)-2-methyl-6-((5-(pyrrolidin-1-yl)pyridin-2-yl)amino)-1,2-dihydro-3H-pyrazolo[3,4-b]pyridin-3-one] | –
< 0.1 nM | COc1c(Nc2cc(Nc3cc(C)nc(C)n3)nc3[nH]n(C)c(=O)c23)cccc1-c1nnn(C)n1 [Compound I-9, 6-((2,6-dimethylpyrimidin-4-yl)amino)-4-((2-methoxy-3-(2-methyl-2H-tetrazol-5-yl)phenyl)amino)-2-methyl-1,2-dihydro-3H-pyrazolo[3,4-b]pyridin-3-one] | –
< 0.1 nM | COc1c(Nc2cc(Nc3cncc(C#N)n3)nc3[nH]n(C)c(=O)c23)cccc1-c1nnn(C)n1 [Compound I-64, 6-((4-((2-methoxy-3-(2-methyl-2H-tetrazol-5-yl)phenyl)amino)-2-methyl-3-oxo-2,3-dihydro-1H-pyrazolo[3,4-b]pyridin-6-yl)amino)pyrazine-2-carbonitrile] | –
0.1 to 0.5 nM | COc1c(Nc2cc(Nc3cc(C)c(F)cn3)nc3[nH]n(C)c(=O)c23)cccc1-c1ncn(C)n1 [Compound I-21, 6-((5-fluoro-4-methylpyridin-2-yl)amino)-4-((2-methoxy-3-(1-methyl-1H-1,2,4-triazol-3-yl)phenyl)amino)-2-methyl-1,2-dihydro-3H-pyrazolo[3,4-b]pyridin-3-one] | –
> 10 nM | COc1c(Nc2cc(Cl)nc3[nH]n(C)c(=O)c23)cccc1-c1nnn(C)n1 [Compound I-27] | –
1 to 10 nM | COc1c(F)cccc1Nc1cc(Nc2ccc(C#N)cn2)nc2[nH]n(C)c(=O)c12 [Compound I-79, 6-((4-((3-fluoro-2-methoxyphenyl)amino)-2-methyl-3-oxo-2,3-dihydro-1H-pyrazolo[3,4-b]pyridin-6-yl)amino)nicotinonitrile] | –
1 to 10 nM | COc1c(Nc2cc(Nc3cc(CO)ccn3)nc3[nH]n(C)c(=O)c23)cccc1-c1ncn(C)n1 [Compound I-19, 6-((4-(hydroxymethyl)pyridin-2-yl)amino)-4-((2-methoxy-3-(1-methyl-1H-1,2,4-triazol-3-yl)phenyl)amino)-2-methyl-1,2-dihydro-3H-pyrazolo[3,4-b]pyridin-3-one] | –
0.5 to 1 nM | COc1c(Cl)cccc1Nc1cc(Nc2cccc(C#N)n2)nc2[nH]n(C)c(=O)c12 [Compound I-99, 6-((4-((3-chloro-2-methoxyphenyl)amino)-2-methyl-3-oxo-2,3-dihydro-1H-pyrazolo[3,4-b]pyridin-6-yl)amino)picolinonitrile] | –
0.1 to 0.5 nM | COCc1ccnc(Nc2cc(Nc3cccc(-c4ncn(C)n4)c3OC)c3c(=O)n(C)[nH]c3n2)c1 [Compound I-15, 4-((2-methoxy-3-(1-methyl-1H-1,2,4-triazol-3-yl)phenyl)amino)-6-((4-(methoxymethyl)pyridin-2-yl)amino)-2-methyl-1,2-dihydro-3H-pyrazolo[3,4-b]pyridin-3-one] | –

Further lines, the molecule ahead of its results:

Structure (SMILES) | Kd [1] | other results
COc1c(Cl)cccc1Nc1cc(Nc2ccc(C(=O)N3CCOCC3)c(C(F)(F)F)n2)nc2[nH]n(C)c(=O)c12 [Compound I-130, 4-((3-chloro-2-methoxyphenyl)amino)-2-methyl-6-((5-(morpholine-4-carbonyl)-6-(trifluoromethyl)pyridin-2-yl)amino)-1,2-dihydro-3H-pyrazolo[3,4-b]pyridin-3-one] | 0.1 to 0.5 nM | –
CNc1nn(-c2cccc(-c3nnn(C)n3)c2OC)c2cc(NC(=O)C3CC3)ncc12 [XVI-3, N-(1-(2-methoxy-3-(2-methyl-2H-tetrazol-5-yl)phenyl)-3-(methylamino)-1H-pyrazolo[4,3-c]pyridin-6-yl)cyclopropanecarboxamide] | – | Kd [2]: > 100 nM; Kd (Tyk2 JH2 Domain Binding Assay, read-out: Kd): 7000 to 10000 nM
Cc1ccc(Nc2cc(NC(=O)C3CC3)nc3[nH]n(C)c(=O)c23)c(N(C)S(C)(=O)=O)c1 [Compound I-229, N-(2-methyl-4-((4-methyl-2-(N-methylmethylsulfonamido)phenyl)amino)-3-oxo-2,3-dihydro-1H-pyrazolo[3,4-b]pyridin-6-yl)cyclopropanecarboxamide] | < 0.1 nM | –
COc1cc(C(=O)N2CCCC2)ccc1Nc1cc(NC(=O)C2CC2)nc2[nH]n(C)c(=O)c12 [Compound I-70, N-(4-((2-methoxy-4-(pyrrolidine-1-carbonyl)phenyl)amino)-2-methyl-3-oxo-2,3-dihydro-1H-pyrazolo[3,4-b]pyridin-6-yl)cyclopropanecarboxamide] | 0.1 to 0.5 nM | –
Cn1[nH]c2nc(NC(=O)C3CC3)cc(Nc3ccccc3P(C)(C)=O)c2c1=O [Compound I-125, N-(4-((2-(dimethylphosphoryl)phenyl)amino)-2-methyl-3-oxo-2,3-dihydro-1H-pyrazolo[3,4-b]pyridin-6-yl)cyclopropanecarboxamide] | > 10 nM | –
COCc1ccc(Nc2cc(NC(=O)C3CC3)nc3[nH]n(C)c(=O)c23)c(OC)c1 [Compound I-45, N-(4-((2-methoxy-4-(methoxymethyl)phenyl)amino)-2-methyl-3-oxo-2,3-dihydro-1H-pyrazolo[3,4-b]pyridin-6-yl)cyclopropanecarboxamide] | 1 to 10 nM | –
Cn1[nH]c2nc(Nc3cncc(C#N)n3)cc(Nc3ccccc3S(C)(=O)=O)c2c1=O [Compound I-119, 6-((2-methyl-4-((2-(methylsulfonyl)phenyl)amino)-3-oxo-2,3-dihydro-1H-pyrazolo[3,4-b]pyridin-6-yl)amino)pyrazine-2-carbonitrile] | 1 to 10 nM | –
COc1c(Nc2cc(NC(=O)C3CC3)nc3[nH]n(C)c(=O)c23)ccc(F)c1F [Compound I-127, N-(4-((3,4-difluoro-2-methoxyphenyl)amino)-2-methyl-3-oxo-2,3-dihydro-1H-pyrazolo[3,4-b]pyridin-6-yl)cyclopropanecarboxamide] | > 10 nM | –
COc1c(Nc2cc(Nc3ccc(C)nn3)nc3[nH]n(C)c(=O)c23)cccc1-c1ccn(C)n1 [Compound I-121, 4-((2-methoxy-3-(1-methyl-1H-pyrazol-3-yl)phenyl)amino)-2-methyl-6-((6-methylpyridazin-3-yl)amino)-1,2-dihydro-3H-pyrazolo[3,4-b]pyridin-3-one] | 0.5 to 1 nM | –
COc1c(Nc2cc(NC(=O)C3CC3)ncc2-c2nnc(CO)o2)cccc1-c1ncn(C)n1 [VIII-5, N-(5-(5-(hydroxymethyl)-1,3,4-oxadiazol-2-yl)-4-((2-methoxy-3-(1-methyl-1H-1,2,4-triazol-3-yl)phenyl)amino)pyridin-2-yl)cyclopropanecarboxamide] | – | Kd [2]: 1 to 10 nM
COCc1ccc(Nc2cc(Nc3ccc(OC)c(C(F)(F)F)n3)nc3[nH]n(C)c(=O)c23)c(OC)c1 [Compound I-104, 4-((2-methoxy-4-(methoxymethyl)phenyl)amino)-6-((5-methoxy-6-(trifluoromethyl)pyridin-2-yl)amino)-2-methyl-1,2-dihydro-3H-pyrazolo[3,4-b]pyridin-3-one] | > 10 nM | –
COCc1ccc(Nc2cc(Nc3cccc(C(F)(F)F)n3)nc3[nH]n(C)c(=O)c23)c(OC)c1 [Compound I-67, 4-((2-methoxy-4-(methoxymethyl)phenyl)amino)-2-methyl-6-((6-(trifluoromethyl)pyridin-2-yl)amino)-1,2-dihydro-3H-pyrazolo[3,4-b]pyridin-3-one] | 1 to 10 nM | –
